Data on one molecule can be found in patent publication US7163950B1, “Surfactants as malarial chloroguine resistance reversal agents” (priority 2000, dated 2007).

Structures are written as SMILES. Where two headings read alike, the source gives them in different places.

Assay [1] concerns P. falciparum. Particulars: read-out: chloroquine IC50, control (no NPE added); control without NPE, used to calculate the degree of chloroquine resistance.
Description: (§1) NPE solutions with increasing average EO content were tested for anti-P. falciparum activity and the IC50S ? of these materials were determined using a non-linear regression analysis.
(§2) P. falciparum cultures were grown in A+ blood obtained by venipuncture of volunteers. Cultures of the laboratory lines ItG and 3D7 [Dolan, 1993] and the patient isolates were maintained by the method of Trager and Jensen [Trager, 1976] using RPMI 1640 supplemented with 10% human serum and 50 μM hypoxanthine. […] In vitro drug susceptibility testing was performed using the WHO In Vitro Micro Test (Mark III) [1997]. The IC50 values were determined using a non-linear regression analysis of the dose-response curve.
Assay [2] has as its system P. falciparum. Kind of assay: microbe, parasite or virus in culture. Particulars: Plasmodium falciparum, read-out: chloroquine IC50, control (no NPE added), control without NPE, used to calculate the degree of chloroquine resistance.
Description: as §1, §2

Broadly, the IC50 is the midpoint of a concentration-inhibition curve. In the case of `CCN(CC)CCCC(C)Nc1ccnc2cc(Cl)ccc12` (centres unmarked) [chloroquine], the half-maximal inhibitory concentration (IC50) in assay [1] was 274 ± 56 nM; in assay [2] it was 240 ± 60 nM.
